Results reported in patent publication US12344631B2, “C17 polar-substituted heteroaromatic synthetic triterpenoids and methods of use thereof” (REATA PHARMACEUTICALS, INC., priority 2019, dated 2025).

Key:
RAW 264.7 cells = test: Nitric oxide suppression assay (IFNγ-induced NO production); format: cell-based, mouse; settings: for IC50: Mus musculus, RAW264.7, RAW 264.7 cells, 2 h pretreatment, 20 ng/mL interferon gamma 24 h, nitrite by Griess, read-out: NO IC50 (nM) (Mean ± SD); for NO IC50 Relative to RTA 402 (fold) (Mean ± SD): average of ratios from replicate experiments, benchmark RTA 402
Experimental: Tissue Culture. RAW 264.7, a mouse macrophage cell line, was obtained from American Type Culture Collection (Manassas VA) and maintained in the log phase of growth in Roswell Park Memorial Institute Medium 1640 (RPMI 1640) supplemented with 10% heat inactivated fetal bovine serum (FBS) and 1% penicillin-streptomycin. Cells were cultured and maintained in a humidified incubator at 37° C. under 5% CO2. Cells were sub-cultured every 3 days. […] All cell culture supplies were obtained from Life Technologies (Grand Island, NY) and VWR (Radnor, PA). Nitric Oxide Suppression Assay. RAW 264.7 cells were plated 1 day in advance of experimental treatments at a concentration of 30,000 cells per well onto Falcon-96 well clear bottom plates (Corning, NY) in a total volume of 200 μL per well using RPMI 1640 supplemented with 0.5% fetal bovine serum and 1% penicillin-streptomycin. The next day, cells were pretreated with compounds serially diluted from 1000× stocks. All compounds were dissolved in dimethyl sulfoxide (DMSO) at 10 mM stock solutions. Compounds were subsequently diluted in DMSO and RPMI 1640. Each well received a final concentration of 0.1% DMSO. Cells were pretreated for 2 hours and incubation at 37° C., followed by treatment with 20 ng/mL of interferon gamma (R&D Systems, Minneapolis, MN) per well for 24 hours. […] Afterwards, 50 μL of cell culture supernatant was transferred from each well into a new Falcon-96 well clear bottom plate. […] Afterwards, air bubbles were removed using ethanol vapor and absorbance was measured using a Spectramax M2e plate reader with a wavelength set to 525 nm. Viability was assessed using WST-1 cell proliferation reagent from Roche (Basel, Switzerland). After media was removed for the Nitric Oxide suppression assay, 15 μL of WST-1 reagent was added to each well of cells. Plates were briefly mixed on an orbital shaker and the cells were incubated at 37° C. for 30 minutes. Absorbance was measured using a Spectramax M2e plate reader with wavelengths set to 440 nm and 700 nm. For the ability of compounds to suppress the increase in nitric oxide release caused by interferon gamma, the absolute amount of nitrite that was produced in each well was extrapolated from the nitrite standards using a linear regression fit. All values were then normalized to the DMSO-interferon gamma treated wells and plotted as percent nitric oxide. IC50 values were calculated with a dependence on WST1 viability using Excel and/or GraphPad Prism (San Diego, CA).

[1] = test system: AML-12 hepatocyte cell line; test: Glutathione assay (total glutathione, GSH-Glo); format: cell-based, mouse; settings: for EC50: Mus musculus, AML12, AML-12 cells, 24 hours, total glutathione, read-out: GSH EC50 (nM) (Mean ± SD); for GSH EC50 Relative to RTA 402 (fold) (Mean ± SD): benchmark RTA 402
Experimental: The effect of compound treatment on total glutathione levels was evaluated in the mouse AML-12 hepatocyte cell line. Glutathione—a tripeptide consisting of cysteine, glutamate, and glycine—is the major thiol-containing protein within the cell and regulates cellular redox balance. Glutathione also plays important roles in detoxification, protein glutathionylation, and iron-sulfur cluster biogenesis (Bachhawat and Yadav, 2018). Nrf2 regulates the expression of many genes involved in glutathione synthesis and metabolism, including both subunits of glutamate cysteine ligase (GCL), the enzyme that catalyzes the rate limiting step of glutathione biosynthesis (Thimmulappa et al., 2002). […] The next day, cells were treated with vehicle (DMSO) or test compound (0.03 nM to 1000 nM). Each well received a final concentration of 0.1% DMSO. Cells were incubated at 37° C., 5% CO2 for 24 hours. Total glutathione concentrations were measured using the GSH-Glo Glutathione Assay kit (Promega) according to the manufacturer's instructions. Briefly, a standard curve was prepared by serially diluting the provided glutathione solution. […] After a 30-minute incubation at room temperature, 100 μL of Luciferin detection reagent was added to all sample and standard wells and incubated for 15 minutes. Luminescence was measured using a PHERAstar plate reader. The EC50 value was determined using Excel and GraphPad Prism software. The basal concentration of glutathione was set to 0% and the highest concentration of glutathione produced following treatment with a test compound was set to 100% and a dose-response curve was generated. The dose-response curve was fit using nonlinear regression analysis and used to extrapolate the EC50 value.

[2] = test system: AREc32 reporter cell line (antioxidant response element of rat Gsta2, Nrf2 target gene); test: AREc32 luciferase reporter activation; format: cell-based, human; settings: for AREc32 EC2X Relative to RTA 402 (fold) (Mean ± SD): average of ratios from replicate experiments, benchmark RTA 402; for EC (2-fold): human, Arec32, 19 h, concentration increasing luminescence signal 2-fold above vehicle, nineteen hours, read-out: AREc32 EC2X (nM) (Mean ± SD); for AREc32 Relative to CC in Same Experiment (Mean ± SD): average of ratios from experiments with direct comparisons
Experimental: […] The effect of several compounds disclosed herein on luciferase reporter activation was assessed in the AREc32 reporter cell line (see Table 10 and Table 11). This cell line is derived from human breast carcinoma MCF-7 cells and is stably transfected with a luciferase reporter gene under the transcriptional control of eight copies of the antioxidant response element from the rat Gsta2 gene, an Nrf2 target gene ([…] et al., 1990). […] Twenty-four hours after plating, cells were treated with vehicle (DMSO) or test compounds at concentrations ranging from 0.03 to 1000 nM for nineteen hours. Media was removed and 100 μL of 1:1 mixture of the One-Glo Luciferase assay reagent and culture medium was added to each well. After incubation for 5 min at room temperature, the luminescence signal was measured on a PHERAstar plate reader. The EC2X value was determined using Excel and GraphPad Prism software. The fold increase in luminescence signal for cells treated with each concentration of compound relative to cells treated with vehicle was determined and a dose-response curve was generated. The dose-response curve was fit using nonlinear regression analysis and used to extrapolate the EC2X value.

Structure (SMILES)	IC50 (RAW 264.7 cells)	NO IC50 Relative to RTA 402 (fold) (Mean ± SD) (RAW 264.7 cells)	EC50 [1]	GSH EC50 Relative to RTA 402 (fold) (Mean ± SD) [1]	AREc32 EC2X Relative to RTA 402 (fold) (Mean ± SD) [2]	EC (2-fold) [2]	AREc32 Relative to CC in Same Experiment (Mean ± SD) ([2]; comparison compound CC2)	AREc32 Relative to CC in Same Experiment (Mean ± SD) ([2]; comparison compound CC3)
CC1(C)CC[C@]2(c3nc(CCN)no3)CC[C@]3(C)[C@H](C(=O)C=C4[C@@]5(C)C=C(C#N)C(=O)C(C)(C)[C@@H]5CC[C@]43C)[C@@H]2C1 [Compound T16]	1.26 ± 0.12 nM	0.94 ± 0.19 fold	0.58 ± 0.04 nM	0.46 ± 0.09 fold	0.30 ± 0.00 fold	3.56 ± 0.31 nM	–	–
Cc1nc([C@]23CCC(C)(C)C[C@H]2[C@H]2C(=O)C=C4[C@@]5(C)C=C(C#N)C(=O)C(C)(C)[C@@H]5CC[C@@]4(C)[C@]2(C)CC3)no1 [Compound T20]	3.79 nM	1.30 ± 0.26 fold	1.66 ± 0.66 nM	0.96 ± 0.15 fold	1.50 ± 0.18 fold	21.5 ± 2.85 nM	–	–
Cn1nnc([C@]23CCC(C)(C)C[C@H]2[C@H]2C(=O)C=C4[C@@]5(C)C=C(C#N)C(=O)C(C)(C)[C@@H]5CC[C@@]4(C)[C@]2(C)CC3)n1 [Compound T21]	1.89 ± 0.67 nM	0.76 ± 0.36 fold	3.18 ± 2.22 nM	0.95 ± 0.34 fold	1.67 ± 0.15 fold	16.2 ± 4.2 nM	–	–
CC1(C)CC[C@]2(c3nc(C(F)(F)F)no3)CC[C@]3(C)[C@H](C(=O)C=C4[C@@]5(C)C=C(C#N)C(=O)C(C)(C)[C@@H]5CC[C@]43C)[C@@H]2C1 [Compound T22]	23.9 nM	7.71 ± 2.33 fold	17.6 ± 0.59 nM	8.72 ± 1.98 fold	3.45 ± 0.69 fold	54.6 ± 8.83 nM	–	–
CCc1noc([C@]23CCC(C)(C)C[C@H]2[C@H]2C(=O)C=C4[C@@]5(C)C=C(C#N)C(=O)C(C)(C)[C@@H]5CC[C@@]4(C)[C@]2(C)CC3)n1 [Compound T23]	4.85 nM	1.93 ± 0.54 fold	3.26 ± 0.51 nM	2.05 ± 0.44 fold	1.43 ± 0.26 fold	20.2 ± 2.51 nM	2.41 ± 0.42	–
CCc1nc([C@]23CCC(C)(C)C[C@H]2[C@H]2C(=O)C=C4[C@@]5(C)C=C(C#N)C(=O)C(C)(C)[C@@H]5CC[C@@]4(C)[C@]2(C)CC3)no1 [Compound T24]	9.21 nM	2.56 ± 0.62 fold	6.11 ± 2.23 nM	2.53 ± 0.52 fold	2.50 ± 0.66 fold	32.2 ± 2.59 nM	–	–
CC1(C)CC[C@]2(c3noc(C4CC4)n3)CC[C@]3(C)[C@H](C(=O)C=C4[C@@]5(C)C=C(C#N)C(=O)C(C)(C)[C@@H]5CC[C@]43C)[C@@H]2C1 [Compound T25]	11.2 ± 2.09 nM	3.08 ± 1.54 fold	9.07 ± 1.55 nM	3.36 ± 0.34 fold	4.39 ± 0.23 fold	44 ± 1.2 nM	–	–
C[C@@H]1C(=O)C(C#N)=C[C@]2(C)C3=CC(=O)[C@@H]4[C@@H]5CC(C)(C)CC[C@]5(c5nc(C(F)F)no5)CC[C@@]4(C)[C@]3(C)CC[C@@H]12 [Compound T35]	5.48 ± 3.04 nM	1.21 ± 0.21 fold	1.99 ± 0.42 nM	1.02 ± 0.04 fold	0.73 ± 0.14 fold	10.7 ± 1.02 nM	–	1.66 ± 0.31
C[C@@H]1C(=O)C(C#N)=C[C@]2(C)C3=CC(=O)[C@@H]4[C@@H]5CC(C)(C)CC[C@]5(c5nc(C(F)(F)F)no5)CC[C@@]4(C)[C@]3(C)CC[C@@H]12 [Compound T36]	17.8 ± 9.89 nM	3.95 ± 0.84 fold	10.4 ± 1.62 nM	5.40 ± 0.54 fold	2.25 ± 0.31 fold	33.7 ± 6.99 nM	–	–
CCc1noc([C@]23CCC(C)(C)C[C@H]2[C@H]2C(=O)C=C4[C@@]5(C)C=C(C#N)C(=O)[C@@H](C)[C@@H]5CC[C@@]4(C)[C@]2(C)CC3)n1 [Compound T37]	3.45 ± 1.87 nM	0.76 ± 0.12 fold	1.69 ± 0.19 nM	0.88 ± 0.13 fold	0.69 ± 0.06 fold	10.3 ± 1.35 nM	–	1.58 ± 0.16
CC1(C)CC[C@]2(c3noc(C(F)(F)F)n3)CC[C@]3(C)[C@H](C(=O)C=C4[C@@]5(C)C=C(C#N)C(=O)C(C)(C)[C@@H]5CC[C@]43C)[C@@H]2C1 [Compound T40]	24.2 ± 7.64 nM	7.76 ± 2.19 fold	18.3 ± 2.19 nM	8.96 ± 0.68 fold	4.76 ± 0.93 fold	64.9 ± 12.6 nM	–	–
